Source: ChEMBL document CHEMBL1154382, “Preliminary SAR analysis of novel antiproliferative N(6),5'-bis-ureidoadenosine derivatives” (2009)

Key:
Assay type in all cases: functional
UACC-62 [1] = test: Antiproliferative activity against human UACC62 cells
MDA-MB-435 = test: Antiproliferative activity against human MDA-MB-435 cells
HCT-116 = test: Antiproliferative activity against human HCT116 cells
Malme-3M = test: Antiproliferative activity against human MALME-3M cells at 10 uM assessed as cell growth inhibition relative to control; settings: values are per cent of control
EKVX = test: Antiproliferative activity against human EKVX cells at 10 uM assessed as cell growth inhibition relative to control; settings: values are per cent of control
M14 = test: Antiproliferative activity against human M14 cells
K562 = test: Antiproliferative activity against human K562 cells
IGROV-1 = test: Antiproliferative activity against human IGROV1 cells at 10 uM assessed as cell growth inhibition relative to control; settings: values are per cent of control
786-0 [2] = test: Antiproliferative activity against human 786-0 cells
ACHN [3] = test: Antiproliferative activity against human ACHN cells
OVCAR-3 = test: Antiproliferative activity against human OVCAR-3 cells
ACHN [4] = test: Antiproliferative activity against human ACHN cells at 10 uM assessed as cell growth inhibition relative to control; settings: values are per cent of control
MDA-MB-231 = test: Antiproliferative activity against human MDA-MB-231 cells
HL-60(TB) = test: Antiproliferative activity against human HL-60(TB) cells at 10 uM assessed as cell growth inhibition relative to control; settings: values are per cent of control
UACC-62 [5] = test: Antiproliferative activity against human UACC62 cells at 10 uM assessed as cell growth inhibition relative to control; settings: values are per cent of control
NCI-H322M = test: Antiproliferative activity against human NCI-H322M cells
SK-MEL-28 = test: Antiproliferative activity against human SK-MEL-28 cells at 10 uM assessed as cell growth inhibition relative to control; settings: values are per cent of control
U-251 = test: Antiproliferative activity against human U251 cells
[6] = Antiproliferative activity against human […] cells
SN12C = test: Antiproliferative activity against human SN12C cells at 10 uM assessed as cell growth inhibition relative to control; settings: values are per cent of control
HT-29 = test: Antiproliferative activity against human HT-29 cells
SNB-19 = test: Antiproliferative activity against human SNB19 cells at 10 uM assessed as cell growth inhibition relative to control; settings: values are per cent of control
MOLT-4 [7] = test: Antiproliferative activity against human MOLT4 cells
NCI-H226 [8] = test: Antiproliferative activity against human NCI-H226 cells
SK-MEL-5 = test: Antiproliferative activity against human SK-MEL-5 cells at 10 uM assessed as cell growth inhibition relative to control; settings: values are per cent of control
OVCAR-5 = test: Antiproliferative activity against human OVCAR5 cells
COLO 205 = test: Antiproliferative activity against human COLO205 cells
[9] = Antiproliferative activity against human Hs 578T cells
TK-10 = test: Antiproliferative activity against human TK10 cells at 10 uM assessed as cell growth inhibition relative to control; settings: values are per cent of control
UACC-257 = test: Antiproliferative activity against human UACC257 cells
UO-31 [10] = test: Antiproliferative activity against human UO31 cells at 10 uM assessed as cell growth inhibition relative to control; settings: values are per cent of control
SW-620 = test: Antiproliferative activity against human SW620 cells
MOLT-4 [11] = test: Antiproliferative activity against human MOLT4 cells at 10 uM assessed as cell growth inhibition relative to control; settings: values are per cent of control
SF-268 = test: Antiproliferative activity against human SF268 cells
786-0 [12] = test: Antiproliferative activity against human 786-0 cells at 10 uM assessed as cell growth inhibition relative to control; settings: values are per cent of control
LOX IMVI = test: Antiproliferative activity against human LOXIMVI cells at 10 uM assessed as cell growth inhibition relative to control; settings: values are per cent of control
NCI-H226 [13] = test: Antiproliferative activity against human NCI-H226 cells at 10 uM assessed as cell growth inhibition relative to control; settings: values are per cent of control
SNB-75 = test: Antiproliferative activity against human SNB75 cells
HCC 2998 [14] = test: Antiproliferative activity against human HCC2998 cells at 10 uM assessed as cell growth inhibition relative to control; settings: values are per cent of control
UO-31 [15] = test: Antiproliferative activity against human UO31 cells
NCI-H23 = test: Antiproliferative activity against human NCI-H23 cells at 10 uM assessed as cell growth inhibition relative to control; settings: values are per cent of control
HOP-92 = test: Antiproliferative activity against human HOP92 cells
OVCAR-8 = test: Antiproliferative activity against human OVCAR8 cells at 10 uM assessed as cell growth inhibition relative to control; settings: values are per cent of control
CCRF-CEM = test: Antiproliferative activity against human CCRF-CEM cells
A549 = test: Antiproliferative activity against human A549 cells at 10 uM assessed as cell growth inhibition relative to control; settings: values are per cent of control
CAKI-1 = test: Antiproliferative activity against human Caki1 cells
HCC 2998 [16] = test: Antiproliferative activity against human HCC2998 cells
SK-OV-3 [17] = test: Antiproliferative activity against human SKOV3 cells at 10 uM assessed as cell growth inhibition relative to control; settings: values are per cent of control
[18] = Antiproliferative activity against human […] cells at 10 uM assessed as cell growth inhibition relative to control; settings: values are per cent of control
SK-OV-3 [19] = test: Antiproliferative activity against human SKOV3 cells
RXF 393 = test: Antiproliferative activity against human RXF393 cells
HCT-15 = test: Antiproliferative activity against human HCT15 cells at 10 uM assessed as cell growth inhibition relative to control; settings: values are per cent of control
SK-MEL-2 = test: Antiproliferative activity against human SK-MEL-2 cells
SF-539 = test: Antiproliferative activity against human SF539 cells

`CCOC(=O)C[C@H]1[C@@H](O[Si](C)(C)C(C)(C)C)[C@H](n2cnc3c(NC(=O)Nc4ccccc4)ncnc32)O[C@@H]1COC(=O)NC` gave a GI50 (UACC-62 [1]) of 15.8 µM, a GI50 (MDA-MB-435) of 3.26 µM and a GI50 (HCT-116) of 2.33 µM. It also gave a growth, % of control at 10 µM (Malme-3M) of 54%, a growth, % of control at 10 µM (EKVX) of 68% and a GI50 (M14) of 6.37 µM. It also gave a GI50 (K562) of 3.09 µM, a growth, % of control at 10 µM (IGROV-1) of 49% and a GI50 (786-0 [2]) of 7.94 µM. It also gave a GI50 (ACHN [3]) of 5.92 µM, a GI50 (OVCAR-3) of 2.42 µM and a growth, % of control at 10 µM (ACHN [4]) of 26%. The GI50 (MDA-MB-231) was 17.5 µM, the growth, % of control at 10 µM (HL-60(TB)) was 23% and the growth, % of control at 10 µM (UACC-62 [5]) was 65%. For the same compound, the GI50 (NCI-H322M) was 31.7 µM, the growth, % of control at 10 µM (SK-MEL-28) was 72% and the GI50 (U-251) was 7.57 µM. It also gave a GI50 [6] of 2.16 µM, a growth, % of control at 10 µM (SN12C) of 35% and a GI50 (HT-29) of 3.97 µM. The growth, % of control at 10 µM (SNB-19) was 99%, the GI50 (MOLT-4 [7]) was 1.99 µM and the GI50 (NCI-H226 [8]) was 11.8 µM. For the same compound, the growth, % of control at 10 µM (SK-MEL-5) was 24%, the GI50 (OVCAR-5) was 12.8 µM and the GI50 (COLO 205) was 7.7 µM. For the same compound, the GI50 [9] was 3.39 µM, the growth, % of control at 10 µM (TK-10) was 88% and the GI50 (UACC-257) was 20.8 µM. The growth, % of control at 10 µM (UO-31 [10]) was 42%, the GI50 (SW-620) was 4.59 µM and the growth, % of control at 10 µM (MOLT-4 [11]) was 34%. It also gave a GI50 (SF-268) of 5.06 µM, a growth, % of control at 10 µM (786-0 [12]) of 73% and a growth, % of control at 10 µM (LOX IMVI) of 49%. The growth, % of control at 10 µM (NCI-H226 [13]) was 56%, the GI50 (SNB-75) was 10.3 µM and the growth, % of control at 10 µM (HCC 2998 [14]) was -9%. The GI50 (UO-31 [15]) was 5.7 µM, the growth, % of control at 10 µM (NCI-H23) was 88% and the GI50 (HOP-92) was 6.52 µM. For the same compound, the growth, % of control at 10 µM (OVCAR-8) was 74%, the GI50 (CCRF-CEM) was 3.23 µM and the growth, % of control at 10 µM (A549) was 51%. The GI50 (CAKI-1) was 3.72 µM, the GI50 (HCC 2998 [16]) was 8.76 µM and the growth, % of control at 10 µM (SK-OV-3 [17]) was 95%. It also gave a growth, % of control at 10 µM [18] of 39%, a GI50 (SK-OV-3 [19]) of 40.4 µM and a GI50 (RXF 393) of 2.94 µM. It also gave a growth, % of control at 10 µM (HCT-15) of 52%, a GI50 (SK-MEL-2) of 13.2 µM and a GI50 (SF-539) of 11.5 µM.
